Experimental data reported in patent publication EP1541694A1, “Methods of identifying, selecting and/or characterizing compounds which modulate the activity of a Src family kinase” (Sirenade Pharmaceuticals AG, priority 2003, dated 2005).

What was measured:
[1] = test system: Src family kinases when they carry the respective TQ mutations; conditions: cited from earlier work
[2] = test system: Src-TQ expressing ZM78 cell lines; assay: Suppression of tet-induced phenotype changes, evaluated by eye/microscope, normal cell culture plates; assay type: cell-based, human; conditions: adherent
Experimental: (§1) Phenotype changes -tet → +tet were evaluated in 24-well plates (Nunc; cat.no. 143982) under the following several different growth conditions to identify the strongest possible response (Δpt(-tet→+tet)max) 1. full (10% serum containing) growth medium a) without any growth factor supplement (-), b) with epidermal growth factor (EGF; 100ng/ml) (cat.no. 115, Research Diagnostics Inc. (RDI), Flanders, NJ, USA) or c) platelet derived growth factor type BB (PDGF-BB; 30ng/ml) (cat.no. 114b, RDI) or d) hepatocyte growth factor (HGF; 20ng/ml) (RDI, cat.no.300-010), or 2. serum-free medium a) - or b) +EGF or c) +PDGF or d) +HGF. In all cases, cells were first seeded into standard 24-well or 96-well plates (Nunc) in full growth medium. The cell number seeded per well was also varied to identify the most suitable cell densities producing Δpt(-tet→+tet)max. […]
(§2) To that end, the test compounds PP1-Chr., PP2 (cat.no. 529573, Calbiochem) and SU6656 (cat.no. 572635, Calbiochem) (see Fig.9p for chemical structures) were individually added to the cells together with tet, and the development of the phenotype changes in the presence of these compounds was monitored subsequently in direct comparison with cells that received no compound or only vehicle (0.2% DMSO) together with tet induction. […]

[3] = test system: Src-YF expressing ZM77 cell lines; assay: as above; assay type: cell-based, human; conditions: adherent, serum-containing medium
Experimental: as §1, §2

[4] = test system: Src-KA expressing ZM76 cell lines; assay: as above; assay type: cell-based, human; conditions: adherent, serum-containing medium + EGF, PP1-Chr. and PP2 shown as combination
Experimental: as §1, §2

[5] = test system: Src-TQ/YF expressing cell line ZM170.21; assay: Suppression of tet-induced phenotype changes (cell scattering) in suspension, Ultra Low Attachment plates; assay type: cell-based, human; conditions: ZM170.21 (Src-TQ/YF) in suspension, Ultralow Attachment Plates
Experimental: (§3) Cells were seeded into 24-well or 96-well "Ultra Low Attachment" plates (cat.no.: 3473, Costar Corning Corp., Acton, MA, USA). These plates are coated with a covalently bound hydrogel layer that prevents cellular attachment to the polystyrene surface of the wells. As the cells were not attached to these wells, a medium change was impossible here. However, the phenotypes were tested in full serum-containing medium in the absence or presence of EGF, PDGF-BB or HGF as detailed above. Tet-induction was also started the day after seeding.
(§4) Largely irrespective of the cell numbers per well, the cells of all cell lines were in suspension and formed one or few very condensed/compact, opaque, rod-, disc- or kidney-shaped aggregates with a smooth surface, in which individual cells could not be discerned. Phenotype changes became apparent ~24 h after tet induction in ZM77 and ZM170 cell lines only, and Δpt(-tet →+tet)max was reached after ~2 days. In these cell lines Src-YF or Src-TQ/YF expression, respectively, induces scattering of the cells. Many cells are floating in the medium individually or in small clusters and the remaining large aggregate(s) are irregular-shaped and rather loose than compact; individual cells can easily be discerned and thus, the surfaces of these aggregates are rough as with bunches of grapes (Fig.14a,b). This biological response was readily observed with or without any of the above growth factors, wherefore normal growth medium without any additional growth factor was subsequently used in this assay type.
(§5) To that end, the test compounds PP1-Chr., SU6656 and PP2 were individually added to the cells together with tet, and the development of the phenotype changes in the presence of these compounds was monitored subsequently in direct comparison with tet-induced cells that received no compound (Fig.14c-j). The compounds were also added to the cells without tet-induction of Src/ Src mutant expression as controls for non-specific/ toxicity effects. The experiments were performed with several ZM77 cell lines.

[6] = test system: Src-YF expressing ZM77 cell lines; assay: as above; assay type: cell-based, human; conditions: Ultralow Attachment Plates
Experimental: as §3, §4, §5

In the case of `CC(C)(C)n1nc(-c2ccc(Cl)cc2)c2c(N)ncnc21` [PP2], the “inhibition of Src family kinases carrying the TQ mutations” value [1] is given as “do not inhibit”, the “suppression of tet-induced phenotype changes” value [2] is given as “ineffective” and the “suppression of tet-induced phenotype changes” value [3] is given as “partially suppressed”. The “suppression of tet-induced phenotype changes” value [4] was “not able to suppress”, the “suppression of tet-induced phenotype (cell scattering)” value [5] was “largely ineffective” and the “suppression of tet-induced phenotype changes (cell scattering)” value [6] was “partially suppressed”.
